# Results taken from patent US20160151369A1, “SUBSTITUTED 3-PHENYLPROPYLAMINE DERIVATIVES FOR THE TREATMENT OF OPHTHALMIC DISEASES AND DISORDERS” (ACUCELA INC., priority 2013, published 2016).
# System: isomerase (recovery of 11-cis-retinal after bleaching)
# Assay: In vivo murine isomerase assay (Table 3)
# Details: Mus musculus, po, mice
# Method: The capability of compounds described herein to inhibit isomerase was determined by an in vivo murine isomerase assay. […] The recovery of 11-cis-retinal after bleaching can be used to estimate the activity of isomerase in vivo. Delayed recovery, as represented by lower 11-cis-retinal oxime levels, indicates inhibition of isomerization reaction.
# Mice were gavaged with the test compound. […] The mice were allowed to recover 2 hours in the dark. The animals were then sacrificed by carbon dioxide inhalation. Retinoids were extracted from the eye and the regeneration of 11-cis-retinal was assessed at various time intervals.
# After the mice were sacrificed, the eyes were immediately removed and placed in liquid nitrogen for storage.
# The eyes were placed in 500 μL of bis-tris propane buffer (10 mM, pH˜7.3) and 20 μL of 0.8M hydroxile amine (pH˜7.3). The eyes were cut up into small pieces with small iris scissors and then thoroughly homogenized at 30000 rpm with a mechanical homogenizer (Polytron PT 1300 D) in the tube until no visible tissue remained. 500 μL of methanol and 500 μL of heptane were added to each tube. The tubes were attached to a vortexer so that the contents were mixed thoroughly for 15 minutes in room temperature. The organic phase was separated from the aqueous phase by centrifugation for 10 min at 13K rpm, 4° C. 240 μL of the solution from the top layer (organic phase) was removed and transferred to clean 300 μl glass inserts in HPLC vials using glass pipette and the vials were crimped shut tightly.
# The samples were analyzed on an Agilent 1100 HPLC system with normal phase column: SILICA (Beckman Coutlier, dp 5 μm, 4.6 mM×250 mM). […] Loading volume for each sample was 100 μl; detection wavelength was 360 nm. The area under the curve for 11-cis retinal oxime was calculated by Agilent Chemstation software and was recorded manually. Data processing was performed using Prizm software.
# Positive control mice (no compound administered) were sacrificed fully dark-adapted and the eye retinoids analyzed. Light (bleached) control mice (no compound administered) were sacrificed and retinoids isolated and analyzed immediately after light treatment.
# A time course study was performed to determine the isomerase inhibitory activity of the test compound. […] The animals were then “photo-bleached” (5000 Lux white light for 10 minutes) at 2, 4, 8, 16 and 24 hours after dosing, and returned to darkness to allow recovery of the 11-cis-retinal content of the eyes. Mice were sacrificed 2 hours after bleaching, eyes were enucleated, and retinoid content is analyzed by HPLC.
# Recovery control mice (vehicle-only treated) were light-treated and left to recover for 2 hours in the dark before sacrifice and analysis. Light control mice (vehicle only treated) were sacrificed for analysis immediately after photo-bleaching.
# An in vivo dose response isomerase inhibition study was performed with test compound. […] Recovery and retinoid analysis were performed as described above. Dark control mice were vehicle-only treated, sacrificed fully dark adapted without light treatment, and analyzed. Recovery control mice and light control mice were included in the study as per the initial phase.
Structure (SMILES),inhibition at 1 mg/kg (2 h) [%],inhibition at 1 mg/kg (4 h) [%],other results
"NCC[C@@H](O)c1cccc(OCC2CCCOC2)c1 (mixture of isomers) [Example 3, (1R)-3-Amino-1-(3-((tetrahydro-2H-pyran-3-yl)methoxy)phenyl)propan-1-ol]",98.7,94.2,"inhibition at 0.01 mg/kg (2 h, Dose 0.01 mg/kg): 1.2%; inhibition at 0.03 mg/kg (2 h, Dose 0.03 mg/kg): 2.7%; inhibition at 0.1 mg/kg (2 h, Dose 0.1 mg/kg): 4.2%; inhibition at 0.3 mg/kg (2 h): 75.2%; inhibition at 3 mg/kg (2 h, Dose 3 mg/kg): 102%; inhibition at 0.3 mg/kg (4 h): 59.7%; inhibition at 0.3 mg/kg (8 h): 14.8%; inhibition at 0.3 mg/kg (16 h): 1.6%; inhibition at 0.3 mg/kg (24 h): 4.1%"
"NCC[C@@H](O)c1cccc(OCC2CCCSC2)c1 (mixture of isomers) [Example 7, (1R)-3-Amino-1-(3-((tetrahydro-2H-thiopyran-3-yl)methoxy)phenyl)propan-1-ol]",60.5,68,inhibition at 1 mg/kg (8 h): 40.3%
"NCC[C@@H](O)c1cccc(OCC2CCCS(=O)(=O)C2)c1 (mixture of isomers) [Example 10, 3-((3-((R)-3-Amino-1-hydroxypropyl)phenoxy)methyl)tetrahydro-2H-thiopyran 1,1-dioxide]",–,-7.6,–
"NCC[C@@H](O)c1cccc(OCC2Cc3ccccc3O2)c1 (mixture of isomers) [Example 13, (1R)-3-Amino-1-(3-((2,3-dihydrobenzofuran-2-yl)methoxy)phenyl)propan-1-ol]",62.1,–,–
"NCC[C@@H](O)c1cccc(OCC2CCCO2)c1 (mixture of isomers) [Example 14, (1R)-3-Amino-1-(3-((tetrahydrofuran-2-yl)methoxy)phenyl)propan-1-ol]",79.2,59.8,inhibition at 1 mg/kg (8 h): 0.8%
"NCC[C@@H](O)c1cccc(OCC2COc3ccccc3C2)c1 (mixture of isomers) [Example 19, (1R)-3-Amino-1-(3-(chroman-3-ylmethoxy)phenyl)propan-1-ol]",–,91.4,inhibition at 0.3 mg/kg (2 h): 49.4%; inhibition at 0.3 mg/kg (4 h): 40%; inhibition at 0.3 mg/kg (8 h): 15.5%
"NCCC(O)c1cccc(OCC2CCOCC2)c1 (centres unmarked) [Example 2, 3-Amino-1-(3-((tetrahydro-2H-pyran-4-yl)methoxy)phenyl)propan-1-ol]",–,89.9,–
"NCC[C@@H](O)c1cccc(OCc2ccncc2)c1 [Example 4, (R)-3-amino-1-(3-(pyridin-4-ylmethoxy)phenyl)propan-1-ol]",–,-8.7,–
"NCC[C@@H](O)c1cccc(OCc2cccnc2)c1 [Example 5, (R)-3-Amino-1-(3-(pyridin-3-ylmethoxy)phenyl)propan-1-ol]",–,3.1,–
"NCC[C@@H](O)c1cccc(OCC2CCSCC2)c1 [Example 8, (R)-3-Amino-1-(3-((tetrahydro-2H-thiopyran-4-yl)methoxy)phenyl)propan-1-ol]",–,33.2,–
"NCC[C@@H](O)c1cccc(OCC2CCS(=O)(=O)CC2)c1 [Example 9, (R)-4-((3-(3-Amino-1-hydroxypropyl)phenoxy)methyl)tetrahydro-2H-thiopyran 1,1-dioxide]",–,-8.2,–
"CC(=O)N1CCC(COc2cccc([C@H](O)CCN)c2)CC1 [Example 11, (R)-1-(4-((3-(3-Amino-1-hydroxypropyl)phenoxy)methyl)piperidin-1-yl)ethanone]",-4.7,2.6,inhibition at 1 mg/kg (8 h): -3.8%
"Cc1cccc(COc2cccc([C@H](O)CCN)c2)n1 [Example 12, (R)-3-Amino-1-(3-((6-methylpyridin-2-yl)methoxy)phenyl)propan-1-ol]",–,11.2,–
